Reference: US20150351390A1, “COMPOSITIONS AND METHODS FOR AUXIN-ANALOG CONJUGATION” (PIONEER HI-BRED INTERNATIONAL, INC., priority 2012, published 2015)

B1: AtGH3-11: GH3 protein, accession AAD23040 (protein, listed as Arabidopsis thaliana)
chain: MLEKVETFDMNRVIDEFDEMTRNAHQVQKQTLKEILLKNQSAIYLQNCGLNGNATDPEEAFKSMVPLVTDVELEPYIKRMVDGDTSPILTGHPVPAISLSSGTSQGRPKFIPFTDELMENTLQLFRTAFAFRNRDFPIDDNGKALQFIFSSKQYISTGGVPVGTATTNVYRNPNFKAGMKSITSPSCSPDEVIFSPDVHQALYCHLLSGILFRDQVQYVFAVFAHGLVHAFRTFEQVWEEIVTDIKDGVLSNRITVPSVRTAMSKLLTPNPELAETIRTKCMSLSNWYGLIPALFPNAKYVYGIMTGSMEPYVPKLRHYAGDLPLVSHDYGSSEGWIAANVTPRLSPEEATFAVIPNLGYFEFLPVSETGEGEEKPVGLTQVKIGEEYEVVITNYAGLYRYRLGDVVKVIGFYNNTPQLKFICRRNLILSINIDKNTERDLQLSVESAAKRLSEEKIEVIDFSSYIDVSTDPGHYAIFWEISGETNEDVLQDCCNCLDRAFIDAGYVSSRKCKTIGALELRVVAKGTFRKIQEHFLGLGSSAGQFKMPRCVKPSNAKVLQILCENVVSSYFSTAF
B2: OsGH3-3: GH3 protein, accession EEE54131 (protein, listed as Oryza sativa)
chain: MLEKKATRSTRVDGVSGEAVIEEFERVTRDAANVQRETLRRILAENGGVEYLRGLGLAGATDPATFRARVPLATHADLEPYIDRIADGDASPVLTAKPATSISLSSGTTQGKRKYLLFNEELVKSTMQIYRISYAFRNREFPVENGKALQFIYSSRETRTKGGLTATTATTNVYRSEEFKATMRDIQSQCCSPDEVIFGPDFAQSLYCHLLAGLLAAGDVQIVSATFAHSVVLAFQTFERAWEDLCADIRRGEVSPSRVTSPAVRRAMAALLAAPNPGLADEVARKCAALSNWYGVIPALWPNARYVYGIMTGSMEHYVKKLRHYAGGLPLVAAEYGASEGWVGANVEPGTPPERATFTVLPDIAYFEFIPLKPVAGDGGYAEAEPVGLTEVAAGELYEVVMTTFAGLYRYRLGDVVKVAGFYNATPKLKFVCRRNLMLSINIDKNSEQDLQLAVDAAARAVLAGEKLEVVDYTSHADVSSDPGHYVVFLELNAADPAAVDGDVMQACCDELDRAFADAGYVGSRKSGAIAPLELRVLQRGTFQKVLRHYLSLGAPVSQFKSPRCVSRSNSGVLQILAGCTVNVFFSSAYD
B3: OsGH3-12: GH3 protein, accession Q53P49 (protein, listed as Oryza sativa)
chain: MLEKEGKLIMSREDEEIMAWFERTTRDAADVQRETLRRILAENAGVEYLRELGLAGLTDAGSFRARVPVVTHADLDPYIQRVADGDASPVLTAKPVTAISLSSGTTQGKRKRLLFNDDLLRSSIRFFHASYAFTNRAFPVEDGRVLQFMYGSRHETTKGGLTATTVMTNLLRSEEFTASMAARSRPRLPSCSPSEVVFSPDFDESLYCHLLCGLLLAGEVRAVSASFAHSIVVALQALERVWRELCADIRRGAASPARVTTPAVRRAVAPILAAPNPALADALERRCAALGDWSGVIPALWPNARYVQATMTGSMEHYVKKLRHYAGGVPLVSGNYASSEGVIGINAEQHAPPESVVFTVLPDAAYFEFIPLKPPCTDAAADDDNPAAAGSSCYVDADDANPVGLTDVVVGEHYEVVMTTFTGLYRYRLGDVVKVAGFHHATPKLRFVCRRSLILSINVDKNSEHDLQLAVDSAAKILAGDGENHKQLEIADYTSHADTSSDPGHYVVFWELNGGGEEDGGGVLQRCCDEMDRAFGADAGYAQSRKTCAIGALELRVLRRGAFQEVLRHYVAGGSSAGQFKMPRCVAPSNAGVLRVLKDNTINIFFSTAYDYD

Legend:
[1] = system: Arabidopsis ecotype Col-0 plant; test: Arabidopsis response to spot infiltrated auxins and conjugates; type: in vivo, Arabidopsis thaliana; settings: result in words
Description: The effect of auxin conjugates was assessed using Arabidoposis (Arabidopsis thialiana) ecotype Col-0 plant. Prior to studies utilizing the auxin conjugates, levels of analytical grade (98%+pure) IAA, 2,4-D and dicamba in solution were applied at various concentrations directly to developmentally similar leaves of 20-23 day old Arabidopsis seedlings by needleless syringe spot infiltration methodology, in order to determine range of auxinic response and severity. Phenotypes were documented relative to control at 1 day post-spot infiltration and subsequently every other day, up to nine days post treatment. Three concentrations were chosen based on reproducibility, and conjugated forms were then studied with 4 or more replicate treatments for each, along with appropriate negative controls (H2O and 10% EtOH).
(§1) Examples 9 and 10 utilized a spot infiltration method for the delivery of an herbicide directly to leaves of a plant. The method generally allows for the directed delivery of a variety of agents to a localized area of a plant, e.g. localized region of leaves, for screening or assessment purposes, e.g. to quickly assess the response of a plant to the agent. As used in the foregoing examples, the spot infiltration method was used to introduce specific herbicides or specific conjugates of the herbicides to seedling plant leaves. Following introduction of the herbicide or the appropriate conjugate, plants were observed daily for nine days for characteristics of epinasty, trifoliate leaf curly, chlorosis, and new growth recovery.
(§2) Briefly, a solution of the desired agent is prepared of the desired agent, e.g. as described above in Example 10, solutions (5% EtOH) of 1, 2.5 and 5 mM IAA. The solution is then drawn into a 1 mL BD™ slip-tip syringe, bulk, non-sterile syringe (e.g. Becton, Dickinson and Company, Product No. 301025) with 100 μL markings. The desired volume is then applied to the leaf, e.g. as described in Examples 9 and 10, with the tip of the syring against the leaf and positive pressure applied to the syringe plunger. Sufficient pressure is applied in order to infuse the area beneath the syringe opening, but not so much pressure as to cause a visible-to-the-eye puncture or hole to form in the leaf. Some run-off of solution around the syringe opening is expected. In the foregoing examples, two spots were applied to each of two leaves per seedling for soybean plants. […] In soybean, both spots per leaf were at the distal portion of the leaf about 1-2 cm apart. When the method was applied to Arabidopsis, two developmentally intermediate aged leaves were chosen per plant, and one spot infiltration was carried out per leaf.
Generally, for Arabidopsis, the two leaves were chosen from opposite sides of rosette. In general, the spot infiltration method is carried out on younger plants in order to minimize experimental footprint and to maintain developmental uniformity. However, the method is not limited to use on young plants and can be easily applied to older plants as determined by the goals of a particular experiment.

[2] = system: soybean seedlings; test: Soybean seedling response to spot infiltrated auxins and conjugates; on 1st trifoliate leaf curl: key: 0 = no phenotype; +/− = threshold; on Chlorotic lesion @ app. Pnt: key: 0 = no phenotype; +/− = threshold; type: in vivo; parameters: 1st trifoliate leaf curl / Epinasty score: key: 0 = no phenotype; +/− = threshold; settings: for 1st trifoliate leaf curl / Chlorotic lesion @ app. Pnt / Epinasty score: spot infiltration; for Plant response phenotype, soybean: 1, 2.5 and 5 mM, result in words
Description: Conjugate forms of auxinic compounds when applied through spot infiltration, a needleless method to introduce exogenous agents into plant cells. Initially, various concentrations of analytical grade (98%+pure) IAA, 2,4-D, and dicamba were prepared as solutions that were applied directly to uni-foliate leaves of 9 day old soybean seedlings by spot infiltration in order to determine the range of auxinic response and severity.
Spot infiltration comprises applying a compound to be tested in composition that is applied to the surface of a plant, for example, to a leaf or other plant structure. For example, a method for testing a plant response to one or more compounds using spot infiltration comprises a) providing a composition comprising one or more compounds to be tested in a container having at least an opening for the compound enter and/or exit, and one or more elements for moving the composition into or out of the container; b) contacting at least one opening of the container with the surface of a plant and moving the composition comprising one or more compounds to at least the surface of the plant. A container and elements for moving the composition may comprise a syringe body and plunger. Moving the composition to the plant surface comprises contacting the surface with pressure sufficient for the composition to enter the cells of the plant. In an aspect, spot filtration testing comprises measuring an effect of the composition on the contacted plant and comparing that measure or effect to a plant that is not contacted with the composition.
Plant response phenotypes were documented at one day post-spot infiltration and subsequently every other day, up to nine days post treatment. […] In the studies described herein below, 5 replicate treatments for each conjugate form were conducted, along with appropriate negative controls.
as §1, §2

[3] = LC-MS assay of GH3 conjugation of dicamba with Asp or Glu; type: biochemical; settings: LC-MS; for Detected auxin conjugates: Dicamba-Asp: dicamba with Asp; for Detected auxin conjugates: Dicamba-Glu: dicamba with Glu
Procedure, shortened: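 Dicamba–amino acid (Asp or Glu) conjugates formed by purified his-tagged GH3 enzymes were detected by LC-MS on an AB Sciex 4000 QTrap with Shimadzu Nexera UHPLC and a Phenomenex Luna 3 μm Phenyl-Hexyl column, after 20× dilution of the supernatant in water. Standards were used to quantify conjugates. Protein concentration was determined by Bradford assay.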

[4] = LC-MS assay of GH3 conjugation of 2,4-D with Asp or Glu; type: biochemical; settings: LC-MS; for Detected auxin conjugates: 2,4-D-Asp: 2,4-D with Asp; for Detected auxin conjugates: 2,4-D-Glu: 2,4-D with Glu
Procedure, shortened: (§3)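 N-terminal His-tagged GH3 homologs, expressed in E. coli C41(DE3) and Ni-NTA purified, at 44 to 164 μg/mL incubated 3 h at 30 °C in 20 mM Tris-HCl pH 8.0, 5 mM MgCl2, 1 mM DTT, 5 mM ATP, 5 mM auxin (IAA, 2,4-D or dicamba) and 5 mM Asp or Glu. Conjugates quantified by LC-MS against standards after MeOH precipitation; kinetics from Michaelis-Menten fits of initial velocities.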

[5] = LC-MS assay of GH3 conjugation of IAA with Asp or Glu; type: biochemical; settings: LC-MS; for Detected auxin conjugates: IAA-Asp: IAA with Asp; for Detected auxin conjugates: IAA-Glu: IAA with Glu
Procedure, shortened: as §3

[6] = 1, 2.5 and 5 mM, all test levels

Row | Molecule | Phenotype, Arabidopsis ([1]; 5 mM (high dose), 1-2 days post treatment) | 1st trifoliate leaf curl ([2]; 1.0 mM) | Chlorotic lesion @ app. Pnt ([2]; 1.0 mM) | 1st trifoliate leaf curl ([2]; 2.5 mM) | Chlorotic lesion @ app. Pnt ([2]; 2.5 mM) | 1st trifoliate leaf curl ([2]; 5.0 mM) | Chlorotic lesion @ app. Pnt ([2]; 5.0 mM) | Plant response phenotype, soybean [2] | Phenotype, Arabidopsis [1, 6] | Epinasty score ([2]; 1.0 mM) | Epinasty score ([2]; 2.5 mM) | Epinasty score ([2]; 5.0 mM) | Detected auxin conjugates: Dicamba-Asp [3] | Detected auxin conjugates: Dicamba-Glu [3] | Detected auxin conjugates: 2,4-D-Asp [4] | Detected auxin conjugates: 2,4-D-Glu [4] | Detected auxin conjugates: IAA-Asp [5] | Detected auxin conjugates: IAA-Glu [5]
1 | O=C(O)Cc1c[nH]c2ccccc12 [IAA, indole-3-acetic acid] | modest petiole twisting (epinasty) and leaf curl | 0 | 0 | 0 | 0 | 0 | 0 | modest stem twisting and bending (epinasty) | – | – | – | – | – | – | – | – | – | –
2 | O=C(O)C[C@H](NC(=O)Cc1c[nH]c2ccccc12)C(=O)O [IAA-Asp] | – | 0 | 0 | 0 | 0 | 0 | 0 | No discernable phenotype | No discernable phenotype | 0 | 0 | 0 | – | – | – | – | – | –
3 | O=C(O)CC[C@H](NC(=O)Cc1c[nH]c2ccccc12)C(=O)O [IAA-Glu] | – | 0 | 0 | 0 | 0 | 0 | 0 | No discernable phenotype | No discernable phenotype | 0 | 0 | 0 | – | – | – | – | – | –
4 | B1 | – | – | – | – | – | – | – | – | – | – | – | – | No | No | No | No | No | No
5 | B2 | – | – | – | – | – | – | – | – | – | – | – | – | No | No | No | No | Yes | No
6 | B3 | – | – | – | – | – | – | – | – | – | – | – | – | No | No | No | No | No | No
